Measured values taken from ChEMBL document CHEMBL5137055, “Near-Infrared Fluorescent Probes as Imaging and Theranostic Modalities for Amyloid-Beta and Tau Aggregates in Alzheimer's Disease” (J Med Chem, 2022).

Key:
Homo sapiens [1] = species: Homo sapiens; assay: Inhibition of amyloid beta (unknown origin) assessed as decrease in amyloid beta monomers
[2] = molecular target: T1, Amyloid-beta precursor protein (Homo sapiens, UniProt P05067); assay: Binding affinity to amyloid beta (1 to 42) (unknown origin) aggregates
[3] = molecular target: T1, Amyloid-beta precursor protein; assay: Binding affinity to amyloid beta (1 to 40) (unknown origin) oligomer
[4] = molecular target: T1, Amyloid-beta precursor protein; assay: Binding affinity to amyloid beta (1 to 40) (unknown origin) fibrils
[5] = molecular target: T1, Amyloid-beta precursor protein; assay: Binding affinity to amyloid beta (1 to 40) (unknown origin) monomer
[6] = Drug uptake in brain of Tg mouse; assay type: ADME, tissue-based; conditions: for tissue uptake: Tg, brain, read-out: Drug uptake
[7] = Binding affinity to amyloid beta (unknown origin) aggregates; parameters: species or system Homo sapiens
[8] = Lipophilicity, logP of compound; assay type: physicochemical; conditions: octanol/water
[9] = molecular target: T1, Amyloid-beta precursor protein; assay: Displacement of [125I]IMPY from amyloid beta (1 to 42) (unknown origin) measured by competitive radioligand binding assay
Homo sapiens [10] = species: Homo sapiens; assay: Inhibition of amyloid beta (unknown origin) measured by ThT-based fluorimetric assay; conditions: concentration not given here
[11] = molecular target: T1, Amyloid-beta precursor protein; assay: Binding affinity to amyloid beta (1 to 42) (unknown origin) fibrils
[12] = molecular target: T1, Amyloid-beta precursor protein; assay: Binding affinity to amyloid beta (1 to 42) (unknown origin) monomer
[13] = Binding affinity to mouse brain amyloid beta plaques
[14] = Binding affinity to amyloid beta (unknown origin); parameters: species or system Homo sapiens
[15] = molecular target: T1, Amyloid-beta precursor protein; assay: Binding affinity to amyloid beta (1 to 42) (unknown origin) oligomer
[16] = molecular target: T1, Amyloid-beta precursor protein; assay: Binding affinity to human amyloid beta (1 to 42) oligomer measured by fluorescence assay
[17] = molecular target: T1, Amyloid-beta precursor protein; assay: Binding affinity to human amyloid beta (1 to 42) monomer measured by fluorescence assay
[18] = molecular target: T1, Amyloid-beta precursor protein; assay: Binding affinity to human amyloid beta (1 to 42) aggregates measured by fluorescence assay
[19] = Binding affinity to soluble amyloid beta (unknown origin); parameters: species or system Homo sapiens
[20] = Binding affinity to insoluble amyloid beta (unknown origin); parameters: species or system Homo sapiens
[21] = Binding affinity to amyloid beta (unknown origin) monomer; parameters: species or system Homo sapiens
[22] = Binding affinity to tau protein (unknown origin); parameters: species or system Homo sapiens
[23] = Drug uptake in brain of Tg mouse at 2 mins post injection; assay type: ADME, tissue-based; conditions: read-out: Drug uptake
[24] = molecular target: T1, Amyloid-beta precursor protein; assay: Displacement of [125I]IMPY from amyloid beta (1 to 40) (unknown origin) measured by competitive radioligand binding assay
[25] = molecular target: T1, Amyloid-beta precursor protein; assay: Binding affinity to amyloid beta (1 to 40) (unknown origin) aggregates
[26] = molecular target: T1, Amyloid-beta precursor protein; assay: Binding affinity to human amyloid beta (1 to 42) aggregates measured by fluorescence polarization assay
[27] = molecular target: T1, Amyloid-beta precursor protein; assay: Binding affinity to human amyloid beta (1 to 42) oligomer measured by fluorescence polarization assay
Albumin = Albumin (Bos taurus, UniProt P02769); assay: Binding affinity to bovine serum albumin
[28] = molecular target: T1, Amyloid-beta precursor protein; assay: Binding affinity to human amyloid beta (1 to 42) monomer measured by fluorescence polarization assay
[29] = Inhibition of amyloid beta (unknown origin) self-induced aggregation; parameters: species or system Homo sapiens
[30] = molecular target: T1, Amyloid-beta precursor protein; assay: Binding affinity to human amyloid beta (1 to 40) aggregates measured by fluorescence assay
[31] = molecular target: T1, Amyloid-beta precursor protein; assay: Binding affinity to human amyloid beta (1 to 40) monomer measured by fluorescence assay
[32] = Binding affinity to amyloid beta (unknown origin) oligomer; parameters: species or system Homo sapiens

T1 sequence (P05067 whole entry): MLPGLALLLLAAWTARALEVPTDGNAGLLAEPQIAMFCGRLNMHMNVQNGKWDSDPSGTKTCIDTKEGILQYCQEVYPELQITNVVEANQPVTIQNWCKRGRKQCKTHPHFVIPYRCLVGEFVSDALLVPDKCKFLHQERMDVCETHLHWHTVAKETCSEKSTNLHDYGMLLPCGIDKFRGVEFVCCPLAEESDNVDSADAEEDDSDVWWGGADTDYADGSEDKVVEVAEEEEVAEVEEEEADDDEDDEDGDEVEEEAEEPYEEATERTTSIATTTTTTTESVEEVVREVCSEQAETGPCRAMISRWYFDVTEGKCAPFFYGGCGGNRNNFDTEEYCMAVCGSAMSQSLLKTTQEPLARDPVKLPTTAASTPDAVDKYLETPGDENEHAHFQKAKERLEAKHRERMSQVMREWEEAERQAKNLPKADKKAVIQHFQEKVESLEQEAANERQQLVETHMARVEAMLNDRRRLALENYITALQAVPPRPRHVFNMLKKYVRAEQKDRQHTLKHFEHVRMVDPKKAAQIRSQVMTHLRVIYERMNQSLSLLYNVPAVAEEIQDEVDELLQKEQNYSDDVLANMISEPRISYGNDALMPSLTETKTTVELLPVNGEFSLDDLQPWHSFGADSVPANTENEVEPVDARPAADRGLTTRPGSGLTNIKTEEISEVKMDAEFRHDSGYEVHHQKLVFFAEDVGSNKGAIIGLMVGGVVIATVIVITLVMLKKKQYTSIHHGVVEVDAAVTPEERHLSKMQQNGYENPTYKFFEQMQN
Albumin, sequence (P02769 whole entry): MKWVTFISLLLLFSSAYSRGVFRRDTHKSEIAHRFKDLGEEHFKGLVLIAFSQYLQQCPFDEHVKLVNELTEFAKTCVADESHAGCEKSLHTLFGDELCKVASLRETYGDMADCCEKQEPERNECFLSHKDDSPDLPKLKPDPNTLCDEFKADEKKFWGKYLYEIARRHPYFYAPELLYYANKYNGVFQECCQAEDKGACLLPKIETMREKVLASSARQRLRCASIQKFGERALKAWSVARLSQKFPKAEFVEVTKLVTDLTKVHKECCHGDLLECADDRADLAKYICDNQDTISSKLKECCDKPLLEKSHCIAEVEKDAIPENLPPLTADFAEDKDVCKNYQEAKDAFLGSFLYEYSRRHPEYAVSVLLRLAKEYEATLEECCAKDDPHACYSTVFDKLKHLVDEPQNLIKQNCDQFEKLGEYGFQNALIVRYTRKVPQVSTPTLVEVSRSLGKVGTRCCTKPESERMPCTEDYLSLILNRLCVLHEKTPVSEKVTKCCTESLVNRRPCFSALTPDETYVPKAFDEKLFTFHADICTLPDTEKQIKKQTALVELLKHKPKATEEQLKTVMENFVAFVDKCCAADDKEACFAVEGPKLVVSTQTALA

`Nc1c(/N=N/c2ccc(-c3ccc(/N=N/c4cc(S(=O)(=O)O)c5ccccc5c4N)cc3)cc2)cc(S(=O)(=O)O)c2ccccc12` gave an ID50 (Homo sapiens [1]) of 3.4 µM.

`CC1=CC(C)=[N+]2C1=Cc1ccc(/C=C/c3ccc(-c4ccc([125I])cc4)s3)n1[B-]2(F)F` showed a Ki [2] of 0.108 µM.

`COCCOCCn1c2ccc(F)cc2c2cc(/C=C/c3cc[n+](CCO)c4ccccc34)ccc21` gave a Kd [3] of 0.66 µM, a Kd [4] of 1.9 µM and a Kd [5] of 3.22 µM.

In the case of `CN(C)c1ccc2cc(/C=C/C=C(C#N)C#N)ccc2c1`, the tissue uptake [6] is reported as 1.9 %ID/g, the Kd [7] is reported as 0.0088 µM and the Ki [7] is reported as 0.0967 µM. For the same compound, the logP [8] was 4.1.

Compound `CN(CCO)c1ccc2cc(/C=C/C=C/C=C(C#N)C#N)ccc2c1` has a Kd [9] of 0.0145 µM.

Compound `Cc1ccc2nc(/C=C/c3ccc(N)cc3)ccc2c1` has an inhibition (Homo sapiens [10]) of 73%.

With `CCCN(CCC)c1ccc(/C=C/c2cc[n+](OCC)c3ccccc23)cc1` the Kd [11] was 3.19 µM, the Kd [12] was 13.1 µM and the Kd [4] was 1.13 µM. The Kd [5] was 6.18 µM.

`CN(C)c1ccc2cc(/C=C/C=C/C=C(C#N)C#N)ccc2c1` gave a tissue uptake [6] of 3.4 %ID/g, a Kd [7] of 0.0019 µM and a Ki [7] of 0.0327 µM. It also gave a logP [8] of 4.48.

Work on `CN(C)c1ccc(/C=C/C2=[O+][B-](F)(F)OC(/C=C/c3ccc(OCCOCCF)cc3)=C2)cc1` yielded a Kd [13] of 0.0197 µM.

In the case of `CN(C)c1ncc(/C=C/c2nc3cc(OCC[18F])ccc3[se]2)cn1`, the Kd [14] is reported as 0.0017 µM and the logP [8] is reported as 1.28.

`CCCCN(CCCC)c1ccc2cc(/C=C/c3cc[n+](CCO)c4ccccc34)ccc2c1` gave a Kd [11] of 848 µM, a Kd [3] of 41.7 µM and a Kd [15] of 490 µM. For the same compound, the Kd [12] was 1090 µM, the Kd [4] was 33.3 µM and the Kd [5] was 246 µM.

For `CCN(CC)c1ccc(/C=C/C2=CC(/C=C/c3ccc(N(CC)CC)nc3)=[O+][B-](F)(F)O2)cn1`, the Kd [16] was 0.016 µM, the Kd [17] was 0.024 µM and the Kd [18] was 0.027 µM.

`COC(=O)C(=C/C=C/C=C/c1ccc(N(C)C)cc1)C(=O)OC` showed a Ki [14] of 0.645 µM and a Ki [9] of 0.652 µM.

In the case of `CN(C)c1ccc2nc(C=C(C#N)C#N)sc2c1`, the Kd [11] is reported as 0.12 µM.

`CCN(CC)c1ccc(/C=C/C2=[O+][B-](F)(F)OC(/C=C/c3ccc(N(CC)CC)nc3)=C2CCCOc2c(C)cccc2C)cn1` showed a Kd [19] of 0.0075 µM and a Kd [20] of 0.506 µM.

`Cc1cc(/C=C/c2ccc(N(C)C)cc2)n2c1C=C1C=CC=[N+]1[B-]2(F)F` gave a Kd [21] of 0.189 µM and a Kd [22] of 0.0441 µM.

For `C[n+]1ccc(/C=C/c2ccc(N(c3ccccc3)c3ccccc3)cc2)c2ccccc21`, the Kd [11] was 17.4 µM, the Kd [12] was 31.7 µM and the Kd [4] was 14.6 µM. The Kd [5] was 25.9 µM.

`CCCCN(CCCC)c1ccc2cc(/C=C/c3c[n+](C)cc4ccccc34)ccc2c1` gave a Kd [11] of 97.9 µM, a Kd [3] of 36.4 µM and a Kd [15] of 20.8 µM. It also gave a Kd [12] of 25.3 µM, a Kd [4] of 1110 µM and a Kd [5] of 81 µM.

Work on `CN1C(=O)C(=C/C=C/C=C/c2ccc(N(C)C)cc2)C(=O)N(C)C1=O` yielded a tissue uptake at 2 min [23] of 0.83 %ID/g, a Ki [9] of 0.0137 µM and a Kd [24] of 0.0239 µM.

In the case of `CCCC[N+]1=C(/C=C/c2ccc(N(CC)CC)cc2)C(C)(C)c2ccccc21`, the Ki [25] is reported as 0.00137 µM, the Kd [4] is reported as 0.93 µM and the IC50 [22] is reported as 0.00141 µM.

Work on `COC(=O)/C(C#N)=C/C=C/C=C/c1ccc(N(C)C)cc1` yielded a Kd [9] of 0.106 µM.

With `COc1cc(/C=C/C(=O)/C(Cc2cn(CCCCCCNC(=O)CCNC(=O)CCNC(=O)CO[C@H]3CC[C@@]4(C)C(=CC[C@H]5[C@@H]6CC[C@H]([C@@H](C)CCCC(C)C)[C@@]6(C)CC[C@@H]54)C3)nn2)=C(O)/C=C/c2ccc(O)c(OC)c2)ccc1O` the Kd [26] was 0.83 µM, the Kd [27] was 2.17 µM and the Kd (Albumin) was 71 µM. For the same compound, the Kd [28] was 2.03 µM.

With `CN(C)c1ccc2nc(/C=C/C=C/C=C(C#N)C#N)cnc2c1` the Kd [14] was 0.0332 µM, the Drug uptake ([6]; in vivo) was 7.76% and the Kd [22] was 0.0431 µM.

`CCOC(=O)CN1C(=O)/C(=C/c2ccc3c(c2)Sc2ccccc2N3C)SC1=S` gave an IC50 [29] of 0.67 µM, a Kd [7] of 0.0075 µM and a logP [8] of 3.68.

Compound `CN(C)c1ccc(/C=C/C=C/C=C(C#N)C#N)cc1` has a Kd [2] of 0.0269 µM and a Ki [2] of 0.0369 µM.

For `CN(C)c1ccc(/C=C/C=C/C=C2C(=O)OC(C)(C)OC2=O)cc1`, the Ki [2] was 0.354 µM.

Work on `CN(C)c1ccc(/C=C/C2=CC(/C=C/c3ccc(N(C)C)cc3)=[O+][B-]3(OC(=O)C(=O)O3)O2)cc1` yielded a Kd [16] of 0.0038 µM, a Kd [30] of 0.0381 µM and a Kd [17] of 0.0032 µM.

`CCO[n+]1ccc(/C=C/c2ccc(N(C)C)cc2)c2ccccc21` gave a Kd [11] of 7.78 µM, a Kd [12] of 17.6 µM and a Kd [4] of 4.29 µM. It also gave a Kd [5] of 13 µM.

Work on `COCCOCCOCC1=C2C(C)=CC(C)=[N+]2[B-](F)(F)n2c(/C=C/c3ccc(N(C)C)cc3)cc(C)c21` yielded a Kd [21] of 0.0486 µM.

Compound `O=C1NC(=S)NC(=O)C1=C/C=C/C=C/C1C(=O)NC(=S)NC1O` (centres undefined) has a tissue uptake at 2 min [23] of 0.04 %ID/g.

Work on `Cc1c(/C=C/C2=CC(/C=C/c3cnn(-c4ccccc4)c3C)=[O+][B-](F)(F)O2)cnn1-c1ccccc1` yielded a Kd [16] of 0.0688 µM, a Kd [30] of 0.0524 µM and a Kd [31] of 0.0857 µM.

Compound `CCCCN(CCCC)c1ccc2cc(/C=C/c3cc[n+](C)c4ccccc34)ccc2c1` has a Kd [11] of 246 µM, a Kd [3] of 20.1 µM and a Kd [15] of 128 µM. For the same compound, the Kd [12] was 281 µM, the Kd [4] was 39.3 µM and the Kd [5] was 71.1 µM.

Work on `CN(C)c1ccc(/C=C/C=C/C=C2C(=O)CC(C)(C)CC2=O)cc1` yielded a Ki [2] of 0.645 µM.

Work on `COCCOCCn1c2ccccc2c2cc(/C=C/c3cc[n+](C)c4ccccc34)ccc21` yielded a Kd [11] of 11.4 µM, a Kd [12] of 40.2 µM and a Kd [4] of 13.1 µM. The Kd [5] was 96.6 µM.

With `CCN1/C(=C/C=C2\CCCC(/C=C(/C#N)C(=O)C(C)(C)C)=C2Cl)C(C)(C)c2ccccc21` the Kd [2] was 0.445 µM.

Compound `CC1=CC(C)=[N+]2C1=C(CCCN1CCNc3ccccc31)c1c(C)cc(/C=C/c3ccc(N(C)C)s3)n1[B-]2(F)F` has a Kd [21] of 0.006 µM, a Kd [7] of 0.018 µM and a Kd [32] of 0.027 µM.

In the case of `COCCOCCOCC1=C2C(C)=CC(/C=C/c3ccc(N(C)C)cc3)=[N+]2[B-](F)(F)n2c(/C=C/c3ccc(N(C)C)cc3)cc(C)c21`, the Kd [21] is reported as 0.097 µM.

`CCOC(=O)CN1C(=O)S/C(=C\C=C\c2ccc3c(c2)Sc2ccccc2N3C)C1=O` gave an IC50 [29] of 1.8 µM, a Kd [7] of 0.0103 µM and a logP [8] of 3.6.

Compound `CN(C)c1ccc2nc(/C=C/c3ccc(C=C(C#N)C#N)cc3)sc2c1` has a Kd [11] of 0.11 µM.

`CCN(CC)c1ccc(/C=C/C2=CC(/C=C/c3ccc(N(C)C)cc3)=[O+][B-](F)(F)O2)cn1` gave a Kd [12] of 0.0458 µM, a Kd [5] of 0.106 µM and a logP [8] of 1.94.

`Cc1cc(/C=C/c2ccc(N(C)C)o2)n2c1C=C1C=CC=[N+]1[B-]2(F)F` showed a Kd [21] of 0.149 µM.
